The subject of one experiment is Micrococcus luteus. In words: in vivo activity, M.I.C. on M. luteus (VM1 derivatives alone, without VS1). Type of experiment: cell-based. The following applies: M. luteus in LBroth, 18 h at 37° C. with shaking. Further details: key: (+) indicates multiplication of bacteria. As to the method:
The synthesized derivatives of the present invention have been tested for antibacterial activity (in solid and liquid medium), ribosome binding affinity and synergistic activity with virginiamycin S. The tests for biological activity were carried out both in vivo and in vitro. The in vivo tests were carried out using Micrococcus luteus as the test organism with the VM1 derivatives alone (without VS1). Minimum inhibitory concentrations (MIC values) were determined on agar broth plates by standard microbiological procedures, with a range of concentrations of the VM derivatives applied to the plates. The in vitro tests of the VM derivatives were performed together with VS1, and took advantage of the unique fluorescence (F) inherent in VS1. The results are summarized in the following tables, wherein the activities are compared to virginiamycin (VM1). | M. luteus in LBroth, 18 h at 37° C. with shaking. | M. luteus in LBroth, 18 h at 37° C. with shaking.

The test system of the next experiment is ribosomes. As to the kind of experiment: in vitro activity: binding to free ribosomes, VS1 fluorescence with erythromycin displacement. The following applies: together with VS1, fluorescence. Further details: key to kobs (symbol): (*) too small to be measured. t/2 is very large. The protocol:
The in vivo tests were carried out using Micrococcus luteus as the test organism with the VM1 derivatives alone (without VS1). Minimum inhibitory concentrations (MIC values) were determined on agar broth plates by standard microbiological procedures, with a range of concentrations of the VM derivatives applied to the plates. The in vitro tests of the VM derivatives were performed together with VS1, and took advantage of the unique fluorescence (F) inherent in VS1. […] Using spectrofluorometry, an increase in fluorescence can be measured when ribosomes are added to a VS1 solution. Erythromycin is known to bind at the same position on the ribosome (50-S subunit) as VS1, and when it is added to the VS1 /ribosomal mixture, a decrease in fluorescence is seen. If VM1 is added to the VS1 /ribosomal/erythromycin mixture, an increase in fluorescence can be measured. Presumably, a conformational change of the ribosomes occurs upon binding of VM1, which allows VS1 to bind preferentially and releases erythromycin from the ribosomes. The VM1 derivatives would also display this type of behavior if they bind to the ribosomes.

Where [1] appears, read: in vitro Activity of VM1-Ester Derivatives.
[2] abbreviates: in vitro Activity of VM1-Carboxylic Acid Derivatives.

As for `CC1=C\[C@@H](O)CC(=O)Cc2nc(co2)C(=O)N2CC[C@H](SCCC(=O)OCC(Cl)(Cl)Cl)[C@H]2C(=O)O[C@H](C(C)C)[C@H](C)/C=C/C(=O)NC\C=C\1` [Ester b S,R], the “in vivo Activity of VM1-Ester Derivatives, M.I.C. on M. luteus (multiplication of bacteria)” value (“in vivo Activity” for short) with Micrococcus luteus (Concentration 0.0625 μg/mL), with Micrococcus luteus (Concentration 0.125 μg/mL), in the experiment with Micrococcus luteus (Concentration 0.25 μg/mL), with Micrococcus luteus (Concentration 0.5 μg/mL), with Micrococcus luteus (Concentration 1 μg/mL) and with Micrococcus luteus (Concentration 2 μg/mL) was “+” each time. The “in vivo Activity” value with Micrococcus luteus (Concentration 4 μg/mL) and in the experiment on Micrococcus luteus (Concentration 8 μg/mL) was “+” throughout. This molecule yielded a kobs in the experiment with ribosomes (setting [1]) of 0.0009 s⁻¹. For the same molecule, the t/2 in the experiment on ribosomes (setting [1]) worked out at 721 s.
With `CC1=C\[C@@H](O)CC(=O)Cc2nc(co2)C(=O)N2CC[C@@H](SCCCCC(=O)OCC(Cl)(Cl)Cl)[C@@H]2C(=O)O[C@H](C(C)C)[C@H](C)/C=C/C(=O)NC\C=C\1` [Ester c R,S], the “in vivo Activity” value with Micrococcus luteus (Concentration 0.0625 μg/mL), in the experiment with Micrococcus luteus (Concentration 0.125 μg/mL), in the experiment with Micrococcus luteus (Concentration 0.25 μg/mL), in the experiment with Micrococcus luteus (Concentration 0.5 μg/mL), with Micrococcus luteus (Concentration 1 μg/mL) and with Micrococcus luteus (Concentration 2 μg/mL) was “+” in each case. Also, the “in vivo Activity” value in the experiment on Micrococcus luteus (Concentration 4 μg/mL) is reported as “+”. Further, the kobs with ribosomes (setting [1]) came to 0.020 s⁻¹. In the experiment with ribosomes (setting [1]), this molecule had a t/2 of 34.1 s.
For `CC1=C\[C@@H](O)CC(=O)Cc2nc(co2)C(=O)N2CC[C@H](SCCCCC(=O)OCC(Cl)(Cl)Cl)[C@H]2C(=O)O[C@H](C(C)C)[C@H](C)/C=C/C(=O)NC\C=C\1` [Ester c S,R], the “in vivo Activity” value in the experiment with Micrococcus luteus (Concentration 0.0625 μg/mL), in the experiment with Micrococcus luteus (Concentration 0.125 μg/mL), with Micrococcus luteus (Concentration 0.25 μg/mL), with Micrococcus luteus (Concentration 0.5 μg/mL), in the experiment with Micrococcus luteus (Concentration 1 μg/mL) and in the experiment on Micrococcus luteus (Concentration 2 μg/mL) was “+” in each case. Moreover, the “in vivo Activity” value with Micrococcus luteus (Concentration 4 μg/mL) and with Micrococcus luteus (Concentration 8 μg/mL) was “+” in each case. In the experiment with ribosomes (setting [1]), the “kobs (symbol)” value is reported as “*”.
Take `CC1=C\[C@@H](O)CC(=O)Cc2nc(co2)C(=O)N2CCC=C2C(=O)O[C@H](C(C)C)[C@H](C)/C=C/C(=O)NC\C=C\1` [VM1, virginiamycin M1]: in the experiment with Micrococcus luteus (Concentration 0.0625 μg/mL), the “in vivo Acitivity of VM1-Carboxylic Derivatives, M.I.C. on M. luteus (multiplication of bacteria)” value is “+” and the “in vivo Activity” value was “+”. Further, in the experiment on ribosomes (setting [2]), the kobs amounted to 0.068 s⁻¹ and the t/2 amounted to 10.2 s. In the experiment with ribosomes (setting [1]), this molecule came in with a kobs of 0.068 s⁻¹ and a t/2 of 10.2 s.

These data come from patent publication US5587475A, “Derivatized virginiamycin M1” (University of Notre Dame, priority 1995, dated 1996).
